Experiments:
[1] = molecular target: Phosphatidylinositol 4,5-bisphosphate 3-kinase catalytic subunit alpha isoform (Homo sapiens, UniProt P42336); test: Inhibition of PI3Kalpha (unknown origin) using PIP2 as substrate incubated for 1 hrs in presence of ATP by ADP-Glo kinase assay
Histone deacetylase 3 = Histone deacetylase 3 (Homo sapiens, UniProt O15379); test: Inhibition of HDAC3 (unknown origin) using Boc-Lys(acetyl)-AMC as substrate preincubated for 1 hrs followed by substrate addition and measured after 2 hrs by spectrophotometer based fluorometric assay
Histone deacetylase 3, sequence (O15379 whole entry): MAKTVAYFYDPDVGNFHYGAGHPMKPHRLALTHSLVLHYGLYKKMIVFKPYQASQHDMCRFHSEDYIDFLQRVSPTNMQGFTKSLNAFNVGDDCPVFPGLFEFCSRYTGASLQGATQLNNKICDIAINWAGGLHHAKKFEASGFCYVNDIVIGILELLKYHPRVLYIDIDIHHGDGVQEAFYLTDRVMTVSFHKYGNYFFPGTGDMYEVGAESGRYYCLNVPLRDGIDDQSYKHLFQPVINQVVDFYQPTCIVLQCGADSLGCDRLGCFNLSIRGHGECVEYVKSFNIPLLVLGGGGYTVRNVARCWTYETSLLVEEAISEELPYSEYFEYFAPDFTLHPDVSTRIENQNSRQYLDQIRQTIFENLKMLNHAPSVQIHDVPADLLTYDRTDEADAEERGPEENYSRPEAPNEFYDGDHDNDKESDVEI

Histone deacetylase 2 = Histone deacetylase 2 (Homo sapiens, UniProt Q92769); test: Inhibition of HDAC2 (unknown origin) using Boc-Lys(acetyl)-AMC as substrate preincubated for 1 hrs followed by substrate addition and measured after 2 hrs by spectrophotometer based fluorometric assay
Histone deacetylase 2, sequence (Q92769 whole entry): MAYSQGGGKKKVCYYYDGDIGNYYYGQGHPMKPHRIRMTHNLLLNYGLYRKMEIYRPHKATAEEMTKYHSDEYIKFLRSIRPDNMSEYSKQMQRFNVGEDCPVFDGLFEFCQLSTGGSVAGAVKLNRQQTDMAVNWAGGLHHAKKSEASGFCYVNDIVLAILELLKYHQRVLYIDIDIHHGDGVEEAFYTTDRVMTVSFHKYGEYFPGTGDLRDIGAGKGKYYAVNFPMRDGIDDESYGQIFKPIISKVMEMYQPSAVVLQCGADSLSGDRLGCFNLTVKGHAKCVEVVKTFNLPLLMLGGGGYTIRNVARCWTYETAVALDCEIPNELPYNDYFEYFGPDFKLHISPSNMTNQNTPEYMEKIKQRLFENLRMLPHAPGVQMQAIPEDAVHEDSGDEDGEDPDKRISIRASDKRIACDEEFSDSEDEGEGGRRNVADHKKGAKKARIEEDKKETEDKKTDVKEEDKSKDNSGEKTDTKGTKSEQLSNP

Histone deacetylase 1 = Histone deacetylase 1 (Homo sapiens, UniProt Q13547); test: Inhibition of HDAC1 (unknown origin) using Boc-Lys(acetyl)-AMC as substrate preincubated for 1 hrs followed by substrate addition and measured after 2 hrs by spectrophotometer based fluorometric assay
Histone deacetylase 1, sequence (Q13547 whole entry): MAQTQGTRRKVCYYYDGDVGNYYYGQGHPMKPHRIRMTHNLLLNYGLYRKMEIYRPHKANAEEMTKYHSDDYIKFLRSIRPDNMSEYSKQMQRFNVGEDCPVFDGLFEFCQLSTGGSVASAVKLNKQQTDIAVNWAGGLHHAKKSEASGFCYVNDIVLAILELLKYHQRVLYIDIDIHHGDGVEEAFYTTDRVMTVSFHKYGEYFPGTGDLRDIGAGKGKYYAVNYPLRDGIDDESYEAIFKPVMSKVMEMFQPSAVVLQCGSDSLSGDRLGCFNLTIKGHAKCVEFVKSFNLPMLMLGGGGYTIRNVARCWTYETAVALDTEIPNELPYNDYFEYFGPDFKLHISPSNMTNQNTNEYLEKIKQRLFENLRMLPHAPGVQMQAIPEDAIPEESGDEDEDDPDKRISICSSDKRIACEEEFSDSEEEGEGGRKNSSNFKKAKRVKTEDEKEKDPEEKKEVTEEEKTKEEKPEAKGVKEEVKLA

Phosphatidylinositol 4,5-bisphosphate 3-kinase catalytic subunit alpha isoform, sequence (P42336 whole entry, canonical isoform): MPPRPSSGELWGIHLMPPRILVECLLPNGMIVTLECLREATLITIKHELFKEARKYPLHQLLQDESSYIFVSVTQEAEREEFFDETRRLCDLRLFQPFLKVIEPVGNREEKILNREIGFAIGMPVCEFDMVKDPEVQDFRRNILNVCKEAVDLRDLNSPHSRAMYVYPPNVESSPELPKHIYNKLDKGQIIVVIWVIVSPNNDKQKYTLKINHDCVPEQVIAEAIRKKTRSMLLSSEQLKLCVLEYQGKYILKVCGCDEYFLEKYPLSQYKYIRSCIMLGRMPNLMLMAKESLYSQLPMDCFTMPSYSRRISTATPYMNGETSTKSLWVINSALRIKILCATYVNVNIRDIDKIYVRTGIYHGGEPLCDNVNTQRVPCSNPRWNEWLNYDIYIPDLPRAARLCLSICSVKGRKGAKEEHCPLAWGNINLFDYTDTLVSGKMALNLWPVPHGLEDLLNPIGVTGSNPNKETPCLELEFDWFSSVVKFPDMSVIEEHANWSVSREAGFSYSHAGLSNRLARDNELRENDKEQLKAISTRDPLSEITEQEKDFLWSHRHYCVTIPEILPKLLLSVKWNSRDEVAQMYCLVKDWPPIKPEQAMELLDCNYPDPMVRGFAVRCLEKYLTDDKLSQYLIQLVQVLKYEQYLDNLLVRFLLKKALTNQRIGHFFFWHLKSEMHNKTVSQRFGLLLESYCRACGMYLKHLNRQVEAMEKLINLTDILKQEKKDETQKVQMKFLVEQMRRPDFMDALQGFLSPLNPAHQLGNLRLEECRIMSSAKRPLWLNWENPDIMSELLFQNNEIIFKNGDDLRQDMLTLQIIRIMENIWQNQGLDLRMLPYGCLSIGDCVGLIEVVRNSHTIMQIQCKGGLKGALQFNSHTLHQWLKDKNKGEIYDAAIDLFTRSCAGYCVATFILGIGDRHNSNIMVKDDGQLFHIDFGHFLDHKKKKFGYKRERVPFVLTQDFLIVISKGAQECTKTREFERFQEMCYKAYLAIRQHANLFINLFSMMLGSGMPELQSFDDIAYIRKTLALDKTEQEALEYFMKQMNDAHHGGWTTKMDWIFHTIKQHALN

Compound	IC50 [1]	IC50 (Histone deacetylase 3)	IC50 (Histone deacetylase 2)	IC50 (Histone deacetylase 1)
Nc1ccccc1NC(=O)CCCCCCNC(=O)c1ccc(NC(=O)Nc2ccc(-c3nc(OC4CCOC4)nc(N4CCOCC4)n3)cc2)cc1 (centres undefined)	16.6 nM	69.3 nM	241 nM	219 nM
Nc1ccccc1NC(=O)CCCCCNC(=O)c1ccc(NC(=O)Nc2ccc(-c3nc(OC4CCOC4)nc(N4CCOCC4)n3)cc2)cc1 (centres undefined)	7.9 nM	54 nM	247 nM	211 nM
Nc1ccccc1NC(=O)CNC(=O)c1ccc(NC(=O)Nc2ccc(-c3nc(N4CCOCC4)nc(N4CCOCC4)n3)cc2)cc1	37.7 nM	> 10000 nM	> 10000 nM	1950 nM
COc1nc(-c2ccc(NC(=O)Nc3ccc(C(=O)Nc4ccc(F)c(F)c4N)cc3)cc2)nc(N2CCOCC2)n1	20.5 nM		> 10000 nM	> 10000 nM
Nc1ccccc1NC(=O)CCCCNC(=O)c1ccc(NC(=O)Nc2ccc(-c3nc(N4CCOCC4)nc(N4CCOCC4)n3)cc2)cc1	13.3 nM	> 10000 nM	> 10000 nM	> 10000 nM
Nc1ccccc1NC(=O)CCCCCNC(=O)c1ccc(NC(=O)Nc2ccc(-c3nc(OC4COC4)nc(N4CCOCC4)n3)cc2)cc1	4.5 nM	17.7 nM	128 nM	81.5 nM
Nc1ccccc1NC(=O)CCCCCCNC(=O)c1ccc(NC(=O)Nc2ccc(-c3nc(OC4COC4)nc(N4CCOCC4)n3)cc2)cc1	9 nM	56.1 nM	168 nM	178 nM

Further lines, results first:

IC50 [1]	IC50 (Histone deacetylase 3)	IC50 (Histone deacetylase 2)	IC50 (Histone deacetylase 1)	Compound
88.3 nM	24.6 nM	459 nM	336 nM	COc1nc(-c2ccc(NC(=O)Nc3ccc(C(=O)NCCCCCCC(=O)Nc4ccccc4N)cc3)cc2)nc(N2CCOCC2)n1
17.3 nM	99.2 nM	602 nM	227 nM	Nc1ccccc1NC(=O)CCCCCNC(=O)c1ccc(NC(=O)Nc2ccc(-c3nc(N4CCOCC4)nc(N4CCOCC4)n3)cc2)cc1
17 nM	499 nM	> 10000 nM	> 10000 nM	Nc1cc(F)ccc1NC(=O)c1ccc(NC(=O)Nc2ccc(-c3nc(N4CCOCC4)nc(N4CCOCC4)n3)cc2)cc1

Source: ChEMBL document CHEMBL5634161, “Discovery of benzamide-based PI3K/HDAC dual inhibitors with marked pro-apoptosis activity in lymphoma cells” (Eur J Med Chem, 2023)
